# Patent US9134328B2, “Methods of using benzothiazole derivative compounds and compositions” (University of Pittsburgh—Of the Commonwealth System of …, priority 2003, dated 2015)
# Assays:
# [1] = In vivo mouse brain entry studies; set-up: species or system female Swiss-Webster mice
# Description: This study reflects brain entry and clearance from normal brain tissue.
# The mice were anesthetized and killed by cardiac excision following cardiac puncture to obtain arterial blood samples at 2 minutes or 30 minutes post-injection. The mouse brains were rapidly excised and divided into the cerebellum and the remaining whole brain (including brain stem) fractions. The brain samples were counted in a gamma well-counter, and the counts were decay-corrected to the time of injection relative to ^125I or ^18F standards prepared from the injection solution to determine the percent injected dose (% ID) in the samples. The brain samples were weighed to determine the percent injected dose per gram tissue (% ID/g), and this quantity was multiplied by the whole body weight (in kg) to determine the body-weight normalized radioactivity concentration [(% ID-kg)/g] of each tissue sample.
# [2] = In vivo baboon PET imaging studies; conditions: for peak maximum radioactivity remaining in brain at later time points / early-to-late brain radioactivity concentration: baboon brain; for early-to-late brain radioactivity concentration: ratio of early to late radioactivity concentration; for rate of non-specific clearance (t1/2): baboon cerebellum (reference region devoid of specific binding); for higher concentration of radioactivity at 90 minutes in white matter regions than in gray matter regions / clearance half-time from baboon brain gray matter / brain penetration of radioactivity at early time points: control baboon; for higher concentration of radioactivity at 90 minutes in white matter regions than in gray matter regions: 90 minutes post-injection, white matter vs gray matter such as temporal cortex; for clearance half-time from baboon brain gray matter / brain penetration of radioactivity at early time points: intravenous injection; for clearance half-time from baboon brain gray matter: PET; for brain penetration of radioactivity at early time points: PET time-activity curve, all three brain regions
# Description: PET imaging studies in adult baboons (Papio anubis) (weight 15-35 kg, ages 6-12 years) were performed with Compound B and Compound C in accordance with the Guide for the Care and Use of Laboratory Animals adopted by NIH and with the approval of the local Institutional Animal Care and Use Committee. Prior to PET imaging, the animals were initially sedated with ketamine (10-15 mg/kg, i.m.), given atropine (0.5 mg, i.m.) to control salivation and heart rate, and intubated. The baboons were subsequently maintained on a ventilator with isofluorane (0.5-1.25%) anesthesia and medical air. Pancuronium bromide was administered as necessary (intravenously, up to 0.06 mg/kg/hour, titrated to effect) to keep the animals immobilized during the study. A femoral artery catheter was inserted to monitor blood pressure and sample arterial blood, and an intravenous catheter was placed in an antecubital vein for radiotracer injection and to administer fluids as necessary throughout the course of the imaging study. Blood pressure, heart and respiratory rates, and expired CO2 and oxygen saturation levels were monitored continuously during the PET studies. The baseline rectal body temperature (˜37° C.) was maintained using a heating blanket (Gaymar, Orchard Park, N.Y.) and temperature regulator (Yellow Springs Instruments, Yellow Springs, Ohio). Prior to scanning, the baboon's head was fixed so that the image planes were acquired approximately parallel to the orbital-meatal line.
# PET data were acquired using an ECAT HR+PET scanner (CTI PET Systems, Knoxyille, Tenn.) in 3D imaging mode (63 parallel slices; 15.2 cm axial field-of-view; 4.1 mm full-width half-maximum in-plane resolution). A Neuro-Insert (CTI PET Systems) was used to reduce the contribution of scattered photon events. After the baboons were positioned in the PET scanner, a windowed transmission scan (10-15 minutes) was obtained for attenuation correction of the PET emission data using rotating ^68Ge/^68Ga rods. Compound B and Compound C were administered intravenously over 20 seconds, and a dynamic series of PET scans were acquired over 90 minutes using 26 frames of increasing length (6×20 seconds; 4×30 seconds; 6×60 seconds; 4×5 minutes; 6×10 minutes). Approximately 185 MBq (˜5 mCi) of a high specific activity (>14.8 GBq/μmol) Compound B or Compound C was injected in a baboon. In other studies, 148-296 MBq (4-8 mCi) of a high specific activity (>18.5 GBq/μmol) reference PET radiotracer was injected, including either [^11C](+)-McN5652, [carbonyl-^11C]WAY100635, or [^18F]altanserin. The PET data were reconstructed using a Hanning filter (Nyquist cut-off) and corrected for decay, photon attenuation, and scatter.
# An MRI scan was obtained for each baboon using a 1.5T GE Signa scanner (GE Medical Systems, Milwaukee, Wis.) equipped with a standard head coil. A volumetric spoiled gradient recalled (SPGR) MR sequence with parameters for high contrast among gray matter, white matter, and cerebral spinal fluid (CSF) was acquired in the coronal plane (TE=5, TR=24, flip angle=40°, slice thickness=1.5 mm, NEX=2, field of view 12 cm, voxel size=0.94×1.25×1.5 mm). Each individual baboon's MR image was coregistered to the PET data using the automated image registration (AIR) algorithm for cross-modality image alignment and reslicing. The initial 16 frames ([…] post-injection) of the dynamic PET images were summed together into images consisting of a single frame. Prior to co-registration, both the MR and summed PET images were edited using the ANALYZE software package (Mayo Clinic. Rochester, Minn.) to remove extracerebral tissues that could possibly confound the co-registration process. The edited MR images were then coregistered to the summed PET image and resliced to yield MR images in the same spatial orientation and resolution as the summed PET images.
# [3] = baboon cerebellar time-activity curves, reference PET radioligands
SMILES,peak maximum radioactivity remaining in brain at later time points [2],early-to-late brain radioactivity concentration [2],rate of non-specific clearance (t1/2) [2] [min],higher concentration of radioactivity at 90 minutes in white matter regions than in gray matter regions [2] [%],clearance half-time from baboon brain gray matter [2],brain penetration of radioactivity at early time points [2],"non-specific binding clearance rate (in words) [2, 3]",further results
"CNc1ccc(-c2nc3ccc(O)cc3s2)cc1[18F] [Compound B, 2-(3-[^18F]-fluoro-4-methylamino-phenyl)-benzothiazol-6-ol]",about 25%,about 4,17,~30,about 17 minutes,about 0.40 % ID-kg/g,,"2 min./30 min. Ratio ([1]; mouse, in vivo): 10; Radioactivity Conc. at 2 min. ([1]; mouse, in vivo): 0.29 % ID-kg/g; Radioactivity Conc. at 30 min. ([1]; mouse, in vivo): 0.030 % ID-kg/g; brain entry and clearance (in words) ([1]; mouse, in vivo): relatively high brain entry at early time points and fast clearance at later time points"
"Oc1ccc2nc(-c3ccc(NCCC[18F])cc3)sc2c1 [Compound C, 2-[4-(3-^18F-fluoro-propylamino)-phenyl]benzothiazol-6-ol]",about 15%,about 6,10,< 10,about 10 minutes,about 0.22 % ID-kg/g,,"brain entry and clearance (in words) ([1]; mouse brain, 2 and 30 minutes post-injection): relatively high brain entry at early time points and fast clearance at later time points; Radioactivity Conc. at 2 min. ([1]; mouse brain, 2 minutes post-injection, lateral tail vein injection, wild type mice without amyloid deposits): 0.17 % ID-kg/g; Radioactivity Conc. at 30 min. ([1]; mouse brain, 30 minutes post-injection, lateral tail vein injection, wild type mice without amyloid deposits): 0.011 % ID-kg/g; 2 min./30 min. Ratio ([1]; ratio of 2 minutes-to-30 minutes (% ID-kg)/g values, mouse brain, measure of non-specific binding clearance rate): 16"
"[11CH3]Sc1ccc([C@@H]2CN3CCC[C@@H]3c3ccccc32)cc1 [[^11C](+)-McN5652, reference compound]",,,,,,,relatively slow in vivo clearance,
"O=C(c1ccc([18F])cc1)C1CCN(CCn2c(=S)[nH]c3ccccc3c2=O)CC1 [[^18F]altanserin, reference compound]",,,,,,,relatively rapid non-specific binding clearance rates,
"COc1ccccc1N1CCN(CCN(c2ccccn2)[11C](=O)C2CCCCC2)CC1 [[carbonyl-^11C]WAY100635, reference compound]",,,,,,,,non-specific binding clearance rate (in words) ([2]; in vivo): relatively rapid non-specific binding clearance rates
